In patent US7414068B2, “Benzopyran derivatives substituted with secondary amines including tetrazole, method for the preparation thereof and pharmaceutical compositions containing them” (Dongbu Hannong Chemical Co., Ltd., priority 2002, dated 2008):

Assays:
isolated rat aorta = assay: Vasodilating effect on blood vessel excised from rats (methoxamine-constricted aorta); settings: isolated rat aorta constricted with methoxamine (3 μM); read-out: Concentration for inhibition of constriction induced by methoxamine in rat arota (IC50)
Procedure, shortened: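 Endothelium-denuded rat thoracic aortic rings (3 mm) in Krebs-Henseleit buffer, 37 °C, carbogen, 2 g resting tension, primed twice with 10^−5 M phenylephrine. After maximal contraction with 3×10^−6 M methoxamine, compounds added cumulatively at 1, 3, 10, 30 μM. IC50 = concentration giving 50% relaxation of maximal constriction, by linear regression.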

cortical neuron cells = assay: Protective effect on iron-induced neuronal cell injury (LDH release); assay type: cell-based; settings: FeSO4 50 μM; for protective effect on neuron cell: Inhibition (%, 30 μM compound addition): LDH reduction vs control; for IC50: LDH
Procedure, shortened: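 Embryonic (day 17–18) cortical neurons cultured 7–9 days, serum lowered to 0.2%, pretreated 30 min with compound (DMSO ≤0.1%), then exposed to 50 μM FeSO4 for 24 h. LDH released to medium measured; protection expressed as LDH reduction versus vehicle control.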

brain homogenate = assay: Inhibitory effect against lipid peroxidation by iron (MDA quantification); assay type: biochemical, rat; settings: 100 μM compound, FeCl2 400 μM, 37° C. 30 min
Method: The rat brain was homogenized in a Krebs buffer (15 mM HEPES, 10 mM glucose, 140 mM NaCl, 3.6 mM KCl, 1.5 mM CaCl2, 1.4 mM KH2PO4, 0.7 mM MgCl2, PH 7.4) and the supernatant separated by centrifugation at 12,000 rpm for 10 min was used for further experiments. FeCl2 was added for the final concentration to be 400 μM. Then the brain homogenate was allowed to stand at 37° C. for 30 min for the facilitation of oxidation. Each of the test compounds was added at a concentration of 100 μM. For control group, only vehicle was applied.
Iron facilitates the oxidation of the said brain homogenate to produce malondialdehyde (MDA), lipid peroxidation product. Thus, the lipid peroxidation was determined by MDA quantification. The inhibitory effect against lipid peroxidation of the test compounds was evaluated by calculating MDA reduction rate of the test compounds compared with that of the control group.
Typically, the MDA quantification is achieved by reacting samples with 2-thiobarbituric acid (TBA) and measuring the absorbance at 530 nm. However, this method is unsuitable to treat samples on a large scale because of a boiling step. Thus, in this experiment, N-methyl-2-phenylindole was used instead of TBA.

[1] = Acute oral toxicity test in rats; settings: SD, rat, in vivo, single oral dose, suspended in 0.5% methyl cellulose, read-out: lethal dose (LD50) for oral administration
Procedure, shortened: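 Six-week-old SPF SD rats, two per group, received compounds orally as suspensions in 0.5% methyl cellulose. Endpoints were clinical signs, body weight, mortality, haematology, serum biochemistry and macroscopic necropsy of organs and tissues.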

RAW 264.7 cells = assay: Inhibitory effect on NO production (LPS, Griess reagent); assay type: cell-based, murine; settings: Mus musculus, RAW264.7, 24 h, Addition 30 μM, LPS 1 μg/ml, read-out: Inihibition (%) of NO production
Method: Using RPMI1640 media supplemented with 10% fetal bovine serum (FBS), RAW 264.7 cells (obtained from American Type Culture Collection), a murine macrophage cell line, were cultured at 37° C. in a 5% CO2 incubator. The RAW 264.7 cells were harvested and cell density was adjusted to 5×10^5 cell/ml with a RPMI media supplemented with 0.5% FBS and plated at 5×10^4 cell/well to 96-well plate, which were then cultured for 20 hours in a CO2 incubator. After removal of the media, the cells were pre-treated for 1 hour with fresh media containing 30 μM. The test compounds were dissolved in DMSO and diluted to respective concentration in the media. In order to minimize DMSO effect on the nitric oxide formation by the RAW 264.7 cells in the walls, the media were allowed to contain DMSO at a concentration of 0.1% or less.
After completion of one-hour pre-treatment, Lipopolysaccharide (E. coli serotype 055:B5) was added to activate the cells at a final concentration of 1 μg/ml, which were maintained for 24 hours in a CO2 incubator. As a result of the activation of RAW 264.7 cells with LPS, NO was formed. The NO release into the media was in a form of nitrite (NO2^−) and quantitatively measured using the Griess reagent. A control group was treated only with vehicle instead of test compounds.
The inhibitory effect of the test compounds against NO production were determined as the reduction of NO quantity compared with that of the control group.

[2] = tested on: isolated ischemic rat heart; assay: Cardioprotective effect in ischemic heart models of rats (Langendorff); settings: 10 μM; for EDP (mmHg): after 30 min global ischemia and reperfusion; for LDH (u/g): reperfusion LDH release; for LVDP X HR (%): reperfusion, % of pre-treatment DP; for TTC: time to contracture during global ischemia
Method: Male rats (300˜450 g, obtained form the experimental animal team of the Korea Research Institute of Chemical Technology) were anaesthetized by the intra-peritoneal injection of sodium pentobarbital at a dose of 100 mg/kg. Heparin (1,000 U/kg) was injected to the tail vein and then the heart was enucleated. Particularly, cannula (PE 240) was inserted to the organ. Rats were mechanically ventilated with a rodent ventilator, in situ aorta cannula was inserted into their aorta. In retorograde perfusion, their hearts were enucleated, then just hung onto Langendorff Apparatus. Tissue attached at the heart was removed. Heart was perfused in oxygenated modified Krebs-Henseleit bicarbonate buffer (composition<mM/L>116 NaCl, 4.7 KCl, 1.1 MgSO4, 1.17 KH2PO4, 24.9 NaHCO3, 2.52 CaCl2, 8.32 Glucose, 2.0 Pyruvate) at a constant perfusion pressure (85 mmHg). A metal cannula attached to latex balloon filled with solvent (ethanol: water=1:1 (v/v)) was placed in the left ventricle through pulmonary vein and connected to a isovolumetric pressure transducer (H.S.E., Germany) for measurement of left ventricular pressure (LVP). The hearts were allowed to equilibrate for 15 min, at which time left ventricular end-diastolic pressure (EDP) was adjusted to 5 mmHg and this balloon volume was maintained throughout the experiment.
Baseline cardiac contractile function, heart rate (HR), and coronary flow (CF) were measured. Cardiac contractile function was calculated by […], yielding LVDP (left ventricular developed pressure). Double product RPP (rate-pressure product) (DP), another important parameter for indirectly assessing cardiac performance in Langendorff heart impossible to measure cardiac output was calculated by multiplying HR by LVDP.
Throughout the experiment, total coronary blood flow was measured by the use of coronary flow probe (diameter: 1.0 mm) installed in aortic cannula with electromagnetic flowmeter. Temperature of heart was steadily maintained by immersing the heart at 37° C. in physiological saline solution to which 95% O2/5% CO2 was constantly supplied. After stabilization for 15 min, the hearts were pre-treated for 10 min in vehicle (0.04% DMSO) or mixture containing the compound of the present invention or control material. Thereafter, cardiac contractile function, HR and CF were repeatedly measured. Global ischemia was induced by completely shutting off the perfusate for 30 min. Severity of ischemia was determined as the time to contracture (TTC, min) during global ischemia in which the first 5 mmHg increase in EDP was observed. Then, the hearts were reperfused and, 30 min later, contractile functions (LVDP, HR and CF) was repeatedly measured. After reperfusion was accomplished for 30 min, LDH (lactate dehydrogenase) was measured as a sensitive index for loss of cell viability with a kit.

Row | SMILES | IC50 (isolated rat aorta) [µM] | protective effect on neuron cell: Inhibition (%, 30 μM compound addition) (cortical neuron cells; 24 hours) [%] | IC50 (cortical neuron cells; Cortical neurone, 24 h) [µM] | IC50 (cortical neuron cells; 24 hours) [µM] | inhibitory effect against lipid peroxidation induced by iron (%, 100 μM) (brain homogenate) [%] | LD50 [1] [mg/kg] | inhibition at 30 µM (RAW 264.7 cells) [%] | EDP (mmHg) [2] [mmHg] | LDH (u/g) [2] [u/g] | LVDP X HR (%) [2] [%] | TTC [2] [min]
1 | COC(OC)[C@@]1(C)Oc2ccc(N)cc2[C@@H](N(Cc2nnn(C)n2)c2ccc(OC(F)(F)F)cc2)[C@@H]1O [Example 81, (2S,3S,4R)-6-amino-4-[N-(4-trifluoromethoxyphenyl)-N-(2-methyl-2H-tetrazol-5-ylmethyl)amino]-3-hydroxy-2-methyl-2-dimethoxymethyl-3,4-dihydro-2H-1-benzopyran] | > 30 | 120 | < 2 | 1.5 | 89 | > 2000 |  |  |  |  | 
2 | COC(OC)[C@@]1(C)Oc2ccc([N+](=O)[O-])cc2[C@H](N(Cc2nnn(C)n2)c2ccccc2Cl)[C@H]1O [Example 29, (2S,3R,4S)-6-nitro-4-[N-(2-chlorophenyl)-N-(2-methyl-2H-tetrazol-5-ylmethyl)amino]-3-hydroxy-2-methyl-2-dimethoxymethyl-3,4-dihydro-2H-1-benzopyran] |  |  |  |  |  |  | > 75 |  |  |  | 
3 | COC(=O)c1ccc(C)c(N(Cc2nnn(C)n2)[C@H]2c3cc([N+](=O)[O-])ccc3O[C@](C)(C(OC)OC)[C@@H]2O)c1 [Example 68, (2S,3R,4S)-6-nitro-4-[N-(2-methyl-5-methoxycarbonylphenyl)-N-(2-methyl-2H-tetrazol-5-ylmethyl)amino]-3-hydroxy-2-methyl-2-dimethoxymethyl-3,4-dihydro-2H-1-benzopyran] |  |  |  |  |  |  | 64 |  |  |  | 
4 | COC(OC)[C@@]1(C)Oc2ccc([N+](=O)[O-])cc2[C@H](N(Cc2nnn(C)n2)c2ccc(C)cc2C)[C@H]1O [Example 45, (2S,3R,4S)-6-nitro-4-[N-(2,4-dimethylphenyl)-N-(2-methyl-2H-tetrazol-5-ylmethyl)amino]-3-hydroxy-2-methyl-2-dimethoxymethyl-3,4-dihydro-2H-1-benzopyran] |  |  |  |  |  |  | > 75 |  |  |  | 
5 | COC(OC)[C@@]1(C)Oc2ccc([N+](=O)[O-])cc2[C@H](N(Cc2nnn(C)n2)c2ccccc2C(C)C)[C@H]1O [Example 51, (2S,3R,4S)-6-nitro-4-[N-(2-isopropylphenyl)-N-(2-methyl-2H-tetrazol-5-ylmethyl)amino]-3-hydroxy-2-methyl-2-dimethoxymethyl-3,4-dihydro-2H-1-benzopyran] |  |  |  |  |  |  | > 90 |  |  |  | 
6 | COC(OC)[C@@]1(C)Oc2ccc(N)cc2[C@H](N(Cc2nnn(C)n2)c2ccccc2O)[C@H]1O [Example 61, (2S,3R,4S)-6-amino-4-[N-(2-hydroxyphenyl)-N-(2-methyl-2H-tetrazol-5-ylmethyl)amino]-3-hydroxy-2-methyl-2-dimethoxymethyl-3,4-dihydro-2H-1-benzopyran] | > 30 | 89 | < 2 | 1.2 | 87 | > 2000 |  | 23.0 | 22.4 | 52.7 | 20.0
7 | COC(OC)[C@@]1(C)Oc2ccc(N)cc2[C@H](N(Cc2nnn(C)n2)c2ccccc2Cl)[C@H]1O [Example 30, (2S,3R,4S)-6-amino-4-[N-(2-chlorophenyl)-N-(2-methyl-2H-tetrazol-5-ylmethyl)amino]-3-hydroxy-2-methyl-2-dimethoxymethyl-3,4-dihydro-2H-1-benzopyran] |  | 103 |  |  | 84 | > 2000 |  | 17.0 | 15.7 | 64.7 | 27.9
8 | COC(OC)[C@@]1(C)Oc2ccc(N)cc2[C@H](N(Cc2nnn(C)n2)c2ccc(Cl)cc2C)[C@H]1O [Example 42, (2S,3R,4S)-6-amino-4-[N-(2-methyl-4-chlorophenyl)-N-(2-methyl-2H-tetrazol-5-ylmethyl)amino]-3-hydroxy-2-methyl-2-dimethoxymethyl-3,4-dihydro-2H-1-benzopyran] |  | 103 | 2.6 |  | 85 | > 2000 |  |  |  |  | 
9 | COC(OC)[C@@]1(C)Oc2ccc(N)cc2[C@H](N(Cc2nnn(C)n2)c2ccc(OC(F)(F)F)cc2)[C@H]1O [Example 32, (2S,3R,4S)-6-amino-4-[N-(4-trifluoromethoxyphenyl)-N-(2-methyl-2H-tetrazol-5-ylmethyl)amino]-3-hydroxy-2-methyl-2-dimethoxymethyl-3,4-dihydro-2H-1-benzopyran] | > 30 | 108 | < 2 | 1.6 | 89 | > 2000 |  | 17.0 | 15.7 | 64.7 | 27.9
10 | COC(OC)[C@@]1(C)Oc2ccc(N)cc2[C@@H](N(Cc2nnnn2C)c2ccc(Cl)cc2)[C@@H]1O [Example 17, (2S,3S,4R)-6-amino-4-[N-(4-chlorophenyl)-N-(1-methyl-1H-tetrazol-5-ylmethyl)amino]-3-hydroxy-2-methyl-2-dimethoxymethyl-3,4-dihydro-2H-1-benzopyran] | > 30 | 110 | < 2 | 2 | 87 | > 2000 |  |  |  |  | 
